Measured values reported in patent US20070142317A1, “Topical composition for treatment of skin disorders” (QLT USA, Inc., priority 2003, published 2007).

Legend:
Jurkat T cells = assay: TUNEL apoptosis assay, sequential exposure to dCF then dAd (Example 21); format: cell-based; conditions: no dCF (0 uM)
Procedure: (§1) Thus, it is hypothesized that the sequential exposure of the cells to dCF, followed by deoxyadenosine (dAd) will lead to greater levels of apoptosis than dCF alone. […] The cells were then incubated in dAd for 2 more days. At the end of the treatment period, the cells were harvested for analysis by a TUNEL assay, a flow-cytometry-based method to quantify the percentage of cells that have undergone apoptosis. The level of apoptosis is expressed as “% FITC shift”. As a positive control, the cells were exposed to 5 mM camptothecin for 2 days.

U937 monocytoid cells [1] = assay: as above; format: cell-based; conditions: no dCF (0 uM)
Procedure: as §1

U937 monocytoid cells [2] = assay: TUNEL assay, dAd added at different times after dCF wash-out (Example 22); format: cell-based; conditions: dCF 0 μM 2 days, wash, 2 more days
Procedure: At 0, 6, 24, and 48 hours, 50 μM dAd was added and the cells were incubated for an additional 2 days. At the end of the treatment period, the cells were harvested for analysis by a TUNEL assay, a flow-cytometry-based method to quantify the percentage of cells that have undergone apoptosis. The level of apoptosis is expressed as “% FITC shift”. As a positive control, the cells were exposed to 5 mM camptothecin for 2 days.

U937 monocytoid cells [3] = assay: TUNEL assay, dAd, adenosine and adenine dose ranging (Example 24); format: cell-based; conditions: 2 days, no dCF
Procedure: U937 monocytoid cells were cultured in the presence of dAd at various concentrations of dAd (0, 50, 75, 100, 250 and 1000 micromoles/liter). The cells were incubated in dAd for 2 days. At the end of the treatment period, the cells were harvested for analysis by a TUNEL assay, a flow-cytometry-based method to quantify the percentage of cells that have undergone apoptosis. The level of apoptosis expressed as “% FITC shift”. The level of cell cycle arrest is expressed as “% PI shift”. As a positive control, the cells were exposed to 5 mM camptothecin for 2 days.

Jurkat cells [4] = assay: Caspase-3 induction by flow cytometry (Example 31); format: cell-based; conditions: drug 500 μM, PHA-activated cells
Procedure: (§2) In a search for a topical agent that can locally deplete levels of T-cells in the skin, apoptotic compounds were evaluated for their mechanisms of action. The ability that […] induce apoptosis by the same mechanisms was examined by cytokine secretion. […] Caspase-3 and cytokine (IL-2, IL-6, TNF, and IFN-γ) levels were determined and compared to controls at 23 and 46 hours. FdA was incorporated to evaluate the effect of the halogen group and Ara-C for its overlapping mechanisms of action. […] At the end of the treatment period, the cells were harvested and Caspase-3 induction was determined using a flow-cytometry-based method to quantify the percentage of cells that induced Caspase-3. The level of apoptosis is expressed as “% FITC shift”. Cytokine secretion (IL-2, IL-6, TNF, and IFN-γ) was measured at the same time by ELISA and is expressed in pg/mL. […]

U-937 cells [5] = assay: Caspase-3 induction by flow cytometry (Example 31); format: cell-based; conditions: drug 500 μM, LPS-activated cells
Procedure: as §2

U-937 cells [6] = assay: Cytokine secretion by ELISA (Example 31); format: cell-based; conditions: for Cytokine Secretion IL-6 pg/ml Mean of 3 Replicates: drug 500 μM, LPS-activated cells
Jurkat cells [7] = assay: Cytokine secretion by ELISA (Example 31); format: cell-based; conditions: for Cytokine Secretion IL-2 pg/ml Mean of 3 Replicates: PHA-activated cells
Procedure: In a search for a topical agent that can locally deplete levels of T-cells in the skin, apoptotic compounds were evaluated for their mechanisms of action. The ability that […] induce apoptosis by the same mechanisms was examined by cytokine secretion. […] At the end of the treatment period, the cells were harvested and Caspase-3 induction was determined using a flow-cytometry-based method to quantify the percentage of cells that induced Caspase-3. The level of apoptosis is expressed as “% FITC shift”. Cytokine secretion (IL-2, IL-6, TNF, and IFN-γ) was measured at the same time by ELISA and is expressed in pg/mL.

U-937 cells [8] = assay: Toxicity to U-937 cells (summary in Example 29); format: cell-based
U937 monocytoid cells [9] = assay: TUNEL assay, dAd added at different times after dCF wash-out (Example 22); format: cell-based; conditions: dCF 0 μM 2 days, wash, 2 more days; remark: listed apart in the source
lymphocytes = conditions: cited from earlier work
[10] = Calculated concentration in the skin assuming 7% penetration
[11] = 50 μM dAd added 0 hr after wash-out
[12] = 50 μM dAd added 6 hr after wash-out
[13] = 50 μM dAd added 24 hr after wash-out
[14] = 50 μM dAd added 48 hr after wash-out
[15] = drug 50 uM, listed as dAd (Acros)
[16] = drug 50 uM, listed as dAd (Sigma)
[17] = drug 100 uM, listed as dAd (Acros)
[18] = drug 100 uM, listed as dAd (Sigma)
[19] = drug 250 uM, listed as dAd (Acros)
[20] = drug 250 uM, listed as dAd (Sigma)
[21] = drug 1000 uM, listed as dAd (Acros)
[22] = drug 1000 uM, listed as dAd (Sigma)

Compound: Nc1ncnc2c1ncn2[C@H]1C[C@H](O)[C@@H](CO)O1 [dAd, 2′-deoxyadenosine]
- % FITC Shift (Jurkat T cells; dAd 10 uM 2 days): 1.6%
- % FITC Shift (Jurkat T cells; dAd 50 uM 2 days): 4.2%
- % FITC Shift (Jurkat T cells; dAd 250 uM 2 days): 22.2%
- % FITC Shift (U937 monocytoid cells [1]; dAd 10 uM 2 days): 1.8%
- % FITC Shift (U937 monocytoid cells [1]; dAd 50 uM 2 days): 2.6%
- % FITC Shift (U937 monocytoid cells [1]; dAd 250 uM 2 days): 92%
- % FITC Shift (U937 monocytoid cells [2]; [11]): 1.6%
- % FITC Shift (U937 monocytoid cells [2]; [12]): 2.2%
- % FITC Shift (U937 monocytoid cells [2]; [13]): 2.2%
- % FITC Shift (U937 monocytoid cells [2]; [14]): 1.0%
- concentration at which cell cycle arrest begins (U937 monocytoid cells [3]): 75 µM
- concentration at which apoptosis is induced (U937 monocytoid cells [3]; progressively more at 250 and 1000): 100 µM
- % FITC Shift (U937 monocytoid cells [3]; [15]): 0.7%
- % PI Shift (U937 monocytoid cells [3]; [15]): 2.9%
- % FITC Shift (U937 monocytoid cells [3]; [16]): 1.5%
- % PI Shift (U937 monocytoid cells [3]; [16]): 3.2%
- % FITC Shift (U937 monocytoid cells [3]; drug 75 uM): 1.8%
- % PI Shift (U937 monocytoid cells [3]; drug 75 uM, listed as dAd (Acros)): 7.1%
- % PI Shift (U937 monocytoid cells [3]; drug 75 uM, listed as dAd (Sigma)): 8.8%
- % FITC Shift (U937 monocytoid cells [3]; [17]): 3.5%
- % PI Shift (U937 monocytoid cells [3]; [17]): 9.8%
- % FITC Shift (U937 monocytoid cells [3]; [18]): 9.0%
- % PI Shift (U937 monocytoid cells [3]; [18]): 12.1%
- % FITC Shift (U937 monocytoid cells [3]; [19]): 54.1%
- % PI Shift (U937 monocytoid cells [3]; [19]): 14.6%
- % FITC Shift (U937 monocytoid cells [3]; [20]): 65.8%
- % PI Shift (U937 monocytoid cells [3]; [20]): 12.0%
- % FITC Shift (U937 monocytoid cells [3]; [21]): 80.2%
- % PI Shift (U937 monocytoid cells [3]; [21]): 32.6%
- % FITC Shift (U937 monocytoid cells [3]; [22]): 79.2%
- % PI Shift (U937 monocytoid cells [3]; [22]): 29.5%
- Caspase-3 Induction % FITC Shift - Mean of 3 Replicates (Jurkat cells [4]; 23 hr): 73%
- Caspase-3 Induction % FITC Shift - Mean of 3 Replicates (Jurkat cells [4]; 46 hr): 92%
- Caspase-3 Induction % FITC Shift - Mean of 3 Replicates (U-937 cells [5]; 23 hr): 67%
- Caspase-3 Induction % FITC Shift - Mean of 3 Replicates (U-937 cells [5]; 46 hr): 43%
- Cytokine Secretion IL-6 pg/ml Mean of 3 Replicates (U-937 cells [6]; 23 hr): 4 pg/mL
- IL-6 inhibition after Caspase-3 induction (U-937 cells [6]; 46 hours, compared to no drug+LPS): 55%
- Cytokine Secretion IL-6 pg/ml Mean of 3 Replicates (U-937 cells [6]; 46 hr): 4 pg/mL
- Cytokine Secretion IL-2 pg/ml Mean of 3 Replicates (Jurkat cells [7]; 23 hr, drug 500 μM): 17 pg/mL
- IL-2 inhibition (Jurkat cells [7]; 46 hours, compared to no drug+PHA): 61%
- Cytokine Secretion IL-2 pg/ml Mean of 3 Replicates (Jurkat cells [7]; 46 hr, drug 500 μM): 49 pg/mL
- IL-2 concentration (Jurkat cells [7]; Jurkat cells activated by PHA, 46 hours, drug 500 μM): 49 pg/mL
- concentration toxic to U-937 cells on its own (U-937 cells [8]): 250 µM
- % PI Shift (U937 monocytoid cells [9]; [11]): 1.4%
- % PI Shift (U937 monocytoid cells [9]; [12]): 1.3%
- % PI Shift (U937 monocytoid cells [9]; [13]): 1.1%
- % PI Shift (U937 monocytoid cells [9]; [14]): 2.0%
- potentiation of the growth inhibitory effect of dCF (lymphocytes): up to 1,000 fold
- Concentration in the skin assuming 7% penetration ([10]; topical concentration 0.00005%): 0.14 µM
- Concentration in the skin assuming 7% penetration ([10]; topical concentration 0.0005%): 1.39 µM
- Concentration in the skin assuming 7% penetration ([10]; topical concentration 0.005%): 13.93 µM
- Concentration in the skin assuming 7% penetration ([10]; topical concentration 0.01%): 27.86 µM
- Concentration in the skin assuming 7% penetration ([10]; topical concentration 0.05%): 139.31 µM
- Concentration in the skin assuming 7% penetration ([10]; topical concentration 0.1%): 278.62 µM
- Concentration in the skin assuming 7% penetration ([10]; topical concentration 0.5%): 1393.09 µM
- Concentration in the skin assuming 7% penetration ([10]; topical concentration 1%): 2786.18 µM
- Concentration in the skin assuming 7% penetration ([10]; topical concentration 3%): 8358.54 µM
- Concentration in the skin assuming 7% penetration ([10]; topical concentration 5%): 13930.90 µM
